Test results from patent US20120294859A1, “CANCER STEM CELL MARKERS AND USES THEREOF” (GLYCOTOPE GMBH, priority 2010, published 2012).

Experiments:
[1] = test system: MCF-7 breast adenocarcinoma cells; assay: Flow cytometry of CD44/CD173/CD174 expression after 4-OHT treatment; format: cell-based; conditions: MCF-7, 20 nM for 24 h, P>0.05
Method: (§1) Cell suspensions from established cell lines were prepared at a density of 1×10^6 cells/100 μl. They were washed twice with phosphate buffered saline (PBS) containing 2% BSA and incubated with primary antibodies at 4° for 20 min, followed by anti IgG-Cy3 (γ chain-specific) and anti IgM-FITC (μ chain-specific) in appropriate concentrations at 4° for 20 min. Flow cytometry was performed on a FACScan (BD Biosciences, Franklin Lakes, N.J., USA). Collected data from 10,000 cells and WinMDI software were used for the analysis of FACS […]. For 4-hydroxytamoxifen treatment, MDA-MB-231, MDA-MB-435 and MCF-7 breast adenocarcinoma cell lines were exposed to 4-OHT (#H6278, Sigma) at a final concentration of 20 nM for 24 h. Then flow cytometry analysis was performed as described above.

[2] = test system: MDA-MB-231 breast adenocarcinoma cells; assay: as above; format: cell-based; conditions: MDA231, 20 nM for 24 h, P<0.05
Method: as §1

[3] = test system: MDA-MB-435 breast adenocarcinoma cells; assay: as above; format: cell-based; conditions: MDA-MB-435, 20 nM for 24 h, P>0.05
Method: as §1

[4] = test system: MDA231 breast adenocarcinoma cells; assay: Flow cytometry of CD44/CD176 expression after 4-OHT treatment; format: cell-based, human
Method: (§2) Cell suspensions of cell lines were prepared at 1×10^6 cells/100 μl. Cells were washed twice with PBS containing 2% BSA and incubated with primary antibodies at appropriate dilutions at 4° C. for 20 min, followed by anti-IgG-Cy3 (γ chain-specific) and anti-IgM-FITC (μ chain-specific) at appropriate concentrations at 4° C. for 20 min. Flow cytometry was performed with a FACScan (BD Biosciences, Franklin Lakes, N.J., USA). Collected data from 10,000 cells and WinMDI software were used in the analysis of FCS […]. For 4-hydroxytamoxifen treatment, MDA231, MDA435 and MCF-7 breast adenocarcinoma cell lines were exposed to 4-OHT (#H6278, Sigma) at a final concentration of 20 nM for 24 h. Then flow cytometry analysis was performed as described above.

[5] = test system: MCF-7 breast adenocarcinoma cells; assay: as above; format: cell-based, human
Method: as §2

[6] = test system: MDA435 breast adenocarcinoma cells; assay: as above; format: cell-based, human; conditions: for change in percentage of CD44^+/CD176^+ cells after treatment: MDA435, 24 h, 20 nM
Method: as §2

[7] = MDA231, 4-OHT 20 nM for 24 h, percent of the positive cells
[8] = MCF-7, 4-OHT 20 nM for 24 h, percent of the positive cells
[9] = MDA435, 4-OHT 20 nM for 24 h, percent of the positive cells

CC/C(=C(\c1ccc(O)cc1)c1ccc(OCCN(C)C)cc1)c1ccccc1 [4-OHT, 4-hydroxytamoxifen]
change in percentage of CD44^+CD173^+ cells after treatment [1]: not | change in percentage of CD44^+CD174^+ cells after treatment [1]: not | change in percentage of CD44^+CD173^+ cells after treatment [2]: increased | change in percentage of CD44^+CD174^+ cells after treatment [2]: increased | change in percentage of CD44^+CD173^+ cells after treatment [3]: not | change in percentage of CD44^+CD174^+ cells after treatment [3]: not | CD44^+/C176^+ cells [4, 7]: ~2% | CD44^+/CD176^− cells [4, 7]: ~1% | CD44^−/CD176^+ cells [4, 7]: ~13% | CD44^−/CD176^− cells [4, 7]: >60% | change in number of CD44^+/CD176^+ co-expressing cells after treatment ([4]; MDA231, 24 h, 20 nM): no significantly increased number | CD44^+/C176^+ cells [5, 8]: ~8% | CD44^+/CD176^− cells [5, 8]: ~20% | CD44^−/CD176^+ cells [5, 8]: ~8% | CD44^−/CD176^− cells [5, 8]: >60% | change in number of CD44^+/CD176^+ co-expressing cells after treatment ([5]; MCF-7, 24 h, 20 nM): no significantly increased number | CD44^+/C176^+ cells [6, 9]: ~12% | CD44^+/CD176^− cells [6, 9]: ~50% | CD44^−/CD176^+ cells [6, 9]: ~7% | CD44^−/CD176^− cells [6, 9]: ~31% | change in percentage of CD44^+/CD176^+ cells after treatment [6]: increased | change in percentage of CD44^+/CD176^+ cells after treatment ([6]; listed as tamoxifen): enhanced
